Test results as given in patent US20240269120A1, “Method for Treating an Autoimmune and Inflammatory Disease” (Cellestia Biotech AG, priority 2021, published 2024).

Tested on: IL-17
Assay: ELISA of supernatant from activated human PBMC cultures: IL-17
Assay type: cell-based
Conditions: control 0%
Experimental: Human PBMCs and mouse splenocyte in vitro stimulation and treatment: Human peripheral blood mononuclear cells (PBMCs) and mouse splenocytes from donors were stimulated in vitro with anti-CD3 and anti-CD28 antibodies. The stimulated cells were simultaneously treated with compounds for 96 hours. The T cells were profiled for different cell surface and intracellular markers and proliferation by flow cytometry.
ELISA assay: Supernatant from activated human PBMC cultures described above was separated from cells at the end of culture time. Key cytokines (IL-6, IFN-γ, IL-17) were quantified using sandwich ELISA reagents set (Diaclone) following manufacturer's instruction manual.

CC(C)(C)c1ccc(Oc2ccc(N)cn2)cc1 [6-(4-tert-butylphenoxy)pyridin-3-amine]
Percentage downregulation of IL-17: 38%
